Measurements published in patent publication US20230139171A1 (SITA Information Networking Computing UK Limited, priority 2019, published 2023).
pIC50: −log10 of the molar value.

Assays:
Assay type in all cases: cell-based
[1] = target: T1, human TLR8 (Homo sapiens, UniProt Q9NR97); experiment: TLR8 inhibition reporter assay (HEK-Blue cells, SEAP reporter, R848 stimulation); settings: HEK-Blue cells overexpressing human TLR8, SEAP reporter, R848 15.9 μM; read-out: TLR8 IC50
T1 construct: host or cells: HEK-Blue cells
T1 sequence (Q9NR97 27-1041): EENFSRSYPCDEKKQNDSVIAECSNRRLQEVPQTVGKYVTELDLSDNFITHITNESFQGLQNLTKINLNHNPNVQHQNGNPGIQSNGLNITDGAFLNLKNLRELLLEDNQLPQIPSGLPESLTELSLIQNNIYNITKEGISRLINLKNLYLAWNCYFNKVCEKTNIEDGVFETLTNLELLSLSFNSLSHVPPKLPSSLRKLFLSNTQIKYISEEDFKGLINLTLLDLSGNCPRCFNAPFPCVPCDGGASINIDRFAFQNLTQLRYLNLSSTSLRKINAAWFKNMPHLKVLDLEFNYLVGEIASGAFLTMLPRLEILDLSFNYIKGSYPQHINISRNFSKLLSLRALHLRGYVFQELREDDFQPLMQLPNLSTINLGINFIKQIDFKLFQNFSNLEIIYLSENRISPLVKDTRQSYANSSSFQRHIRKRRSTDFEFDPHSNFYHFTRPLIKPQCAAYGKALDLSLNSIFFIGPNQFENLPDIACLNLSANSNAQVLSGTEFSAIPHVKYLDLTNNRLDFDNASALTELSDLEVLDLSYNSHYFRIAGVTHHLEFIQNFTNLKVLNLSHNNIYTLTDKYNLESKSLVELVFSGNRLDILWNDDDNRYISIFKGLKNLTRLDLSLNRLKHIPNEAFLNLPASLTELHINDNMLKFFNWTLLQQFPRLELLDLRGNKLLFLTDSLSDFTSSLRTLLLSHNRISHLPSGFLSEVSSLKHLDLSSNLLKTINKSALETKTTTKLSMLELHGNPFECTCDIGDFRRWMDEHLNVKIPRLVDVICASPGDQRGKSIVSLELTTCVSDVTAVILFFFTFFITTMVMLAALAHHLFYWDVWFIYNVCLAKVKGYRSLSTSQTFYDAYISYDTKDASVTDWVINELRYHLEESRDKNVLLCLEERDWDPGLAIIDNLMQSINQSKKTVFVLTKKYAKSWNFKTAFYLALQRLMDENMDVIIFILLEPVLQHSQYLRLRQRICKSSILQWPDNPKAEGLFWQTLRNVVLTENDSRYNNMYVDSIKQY
In short: (§1)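 HEK-Blue cells overexpressing human TLR7, TLR8 or TLR9 carry a SEAP reporter driven by NF-κB/AP-1 sites. Compounds (0.05 nM–50 μM) were preincubated 30 min at room temperature, then cells were stimulated with gardiquimod 7.5 μM (TLR7), R848 15.9 μM (TLR8) or ODN2006 5 nM (TLR9) for 22 h at 37 °C.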

[2] = target: T2, human TLR7 (Homo sapiens, UniProt Q9NYK1); experiment: TLR7 inhibition reporter assay (HEK-Blue cells, SEAP reporter, gardiquimod stimulation); settings: HEK-Blue cells overexpressing human TLR7, SEAP reporter, gardiquimod 7.5 μM; read-out: TLR7 IC50
T2 construct: host or cells: HEK-Blue cells
T2 sequence (Q9NYK1 27-1049): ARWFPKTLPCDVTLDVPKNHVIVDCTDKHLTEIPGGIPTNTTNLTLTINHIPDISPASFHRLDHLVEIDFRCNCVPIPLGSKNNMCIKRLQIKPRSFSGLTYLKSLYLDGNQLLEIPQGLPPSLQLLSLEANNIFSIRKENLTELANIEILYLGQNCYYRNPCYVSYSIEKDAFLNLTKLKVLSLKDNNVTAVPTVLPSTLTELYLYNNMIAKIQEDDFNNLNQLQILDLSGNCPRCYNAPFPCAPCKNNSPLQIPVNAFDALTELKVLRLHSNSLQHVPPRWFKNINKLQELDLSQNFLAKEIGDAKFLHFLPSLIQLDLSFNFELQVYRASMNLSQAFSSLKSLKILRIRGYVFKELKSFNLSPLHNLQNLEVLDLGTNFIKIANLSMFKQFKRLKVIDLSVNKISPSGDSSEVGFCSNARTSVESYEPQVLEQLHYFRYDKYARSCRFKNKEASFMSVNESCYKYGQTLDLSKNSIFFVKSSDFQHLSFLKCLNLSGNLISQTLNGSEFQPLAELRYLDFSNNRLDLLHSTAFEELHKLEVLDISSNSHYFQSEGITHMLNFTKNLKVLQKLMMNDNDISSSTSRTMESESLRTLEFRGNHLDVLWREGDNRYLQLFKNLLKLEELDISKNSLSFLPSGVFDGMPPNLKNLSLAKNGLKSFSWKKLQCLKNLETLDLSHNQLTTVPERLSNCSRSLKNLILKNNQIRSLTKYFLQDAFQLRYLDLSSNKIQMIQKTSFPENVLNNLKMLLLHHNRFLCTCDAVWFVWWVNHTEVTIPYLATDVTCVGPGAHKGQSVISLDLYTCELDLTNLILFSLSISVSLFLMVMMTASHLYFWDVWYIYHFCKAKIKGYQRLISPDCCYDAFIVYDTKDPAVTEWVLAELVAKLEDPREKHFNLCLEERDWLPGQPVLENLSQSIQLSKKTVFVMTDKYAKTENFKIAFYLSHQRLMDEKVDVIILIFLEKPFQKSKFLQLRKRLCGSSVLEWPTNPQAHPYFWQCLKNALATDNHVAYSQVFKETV
In short: as §1

[3] = target: T3, human TLR9 (Homo sapiens, UniProt Q9NR96); experiment: TLR9 inhibition reporter assay (HEK-Blue cells, SEAP reporter, ODN2006 stimulation); settings: HEK-Blue cells overexpressing human TLR9, SEAP reporter, ODN2006 5 nM
T3 construct: host or cells: HEK-Blue cells
T3 sequence (Q9NR96 26-1032): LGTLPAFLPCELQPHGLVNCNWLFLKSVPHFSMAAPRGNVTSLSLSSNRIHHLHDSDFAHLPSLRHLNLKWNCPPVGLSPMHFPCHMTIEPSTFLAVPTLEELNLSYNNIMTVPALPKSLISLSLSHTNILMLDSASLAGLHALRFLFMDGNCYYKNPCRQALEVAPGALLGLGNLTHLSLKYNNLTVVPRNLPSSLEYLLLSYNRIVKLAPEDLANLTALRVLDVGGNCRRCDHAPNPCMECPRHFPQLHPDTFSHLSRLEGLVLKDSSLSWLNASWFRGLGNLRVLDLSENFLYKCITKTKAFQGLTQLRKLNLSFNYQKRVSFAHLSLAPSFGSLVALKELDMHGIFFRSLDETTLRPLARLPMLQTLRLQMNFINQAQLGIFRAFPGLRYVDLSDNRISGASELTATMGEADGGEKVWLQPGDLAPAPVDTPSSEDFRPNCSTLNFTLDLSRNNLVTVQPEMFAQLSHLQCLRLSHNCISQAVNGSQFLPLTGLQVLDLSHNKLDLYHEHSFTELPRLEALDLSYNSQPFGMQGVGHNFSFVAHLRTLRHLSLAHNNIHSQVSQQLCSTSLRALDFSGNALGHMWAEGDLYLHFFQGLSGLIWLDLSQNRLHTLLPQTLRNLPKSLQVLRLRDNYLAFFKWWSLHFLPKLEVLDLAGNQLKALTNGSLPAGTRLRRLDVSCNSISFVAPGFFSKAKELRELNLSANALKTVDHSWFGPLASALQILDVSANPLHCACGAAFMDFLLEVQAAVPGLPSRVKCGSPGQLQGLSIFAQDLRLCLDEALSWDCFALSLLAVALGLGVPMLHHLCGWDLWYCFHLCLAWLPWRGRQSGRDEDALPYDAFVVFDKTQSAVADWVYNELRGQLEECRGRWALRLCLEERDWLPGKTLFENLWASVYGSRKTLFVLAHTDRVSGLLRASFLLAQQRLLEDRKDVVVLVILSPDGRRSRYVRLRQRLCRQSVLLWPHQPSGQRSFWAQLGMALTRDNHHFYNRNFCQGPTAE
In short: as §1

| SMILES | pIC50 [1] | pIC50 [2] | pIC50 [3] |
| --- | --- | --- | --- |
| COc1cc(-c2[nH]c3sc(C4CCC(NS(C)(=O)=O)CC4)nc3c2C(C)C)cn2ncnc12 (stereo not drawn) [Example 127, N-(4-(6-isopropyl-5-(8-methoxy-[1,2,4]triazolo[1,5-a]pyridin-6-yl)-4H-pyrrolo[3,2-d]thiazol-2-yl)cyclohexyl)methanesulfonamide] | 6.75 | 8.70 | < 4.30 |
| CCN(C)CC(=O)N[C@H]1CC[C@H](c2nc3c(C(C)C)c(-c4cc(OC)c5ncnn5c4)[nH]c3s2)CC1 [Example 128, Trans 2-(ethyl(methyl)amino)-N-(4-(6-isopropyl-5-(8-methoxy-[1,2,4]triazolo[1,5-a]pyridin-6-yl)-4H-pyrrolo[3,2-d]thiazol-2-yl)cyclohexyl)acetamide] | 8.08 | 8.92 | 4.87 |
| COc1cc(-c2[nH]c3sc(C4CCC(NC(=O)CNCC(C)C)CC4)nc3c2C(C)C)cn2ncnc12 (stereo not drawn) [Example 129, 2-(isobutylamino)-N-(4-(6-isopropyl-5-(8-methoxy-[1,2,4]triazolo[1,5-a]pyridin-6-yl)-4H-pyrrolo[3,2-d]thiazol-2-yl)cyclohexyl)acetamide] | 8.13 | 8.87 | 4.84 |
| Cc1c(-c2[nH]c3sc(C4CCC(NCC(N)=O)CC4)nc3c2C(C)C)cn2ncnc2c1C (stereo not drawn) [Example 210, 2-((4-(5-(7,8-dimethyl-[1,2,4]triazolo[1,5-a]pyridin-6-yl)-6-isopropyl-4H-pyrrolo[3,2-d]thiazol-2-yl)cyclohexyl)amino)acetamide] | 8.91 | 8.74 | 4.62 |
| Cc1c(-c2[nH]c3sc(N4CCNCC4)nc3c2C(C)C)cn(C)c(=O)c1C [Example 279, 5-(6-isopropyl-2-(piperazin-1-yl)-4H-pyrrolo[3,2-d]thiazol-5-yl)-1,3,4-trimethylpyridin-2(1H)-one] | 8.97 | 7.96 | 4.62 |
| Cc1c(-c2[nH]c3sc(N4CCN(CC5(C)COC5)CC4)nc3c2C(C)C)cn2ncnc2c1C [Example 289, 5-(7,8-dimethyl-[1,2,4]triazolo[1,5-a]pyridin-6-yl)-6-isopropyl-2-(4-((3-methyloxetan-3-yl)methyl)piperazin-1-yl)-4H-pyrrolo[3,2-d]thiazole] | 9.01 | 8.28 | 4.71 |
| Cc1c(-c2[nH]c3sc(N4CCC(NC5(C)COC5)CC4)nc3c2C(C)C)cn2ncnc2c1C [Example 290, 1-(5-(7,8-dimethyl-[1,2,4]triazolo[1,5-a]pyridin-6-yl)-6-isopropyl-4H-pyrrolo[3,2-d]thiazol-2-yl)-N-(3-methyloxetan-3-yl)piperidin-4-amine] | 8.96 | 8.07 | 4.66 |

Stronger by pIC50 [1], values ahead:

| pIC50 [1] | pIC50 [2] | pIC50 [3] | SMILES |
| --- | --- | --- | --- |
| 9.14 | 8.90 | 5.30 | Cc1c(-c2[nH]c3sc(N4CCN(C(=O)CN(C)C)CC4)nc3c2C(C)C)cn2ncnc2c1C [Example 280, 1-(4-(5-(7,8-dimethyl-[1,2,4]triazolo[1,5-a]pyridin-6-yl)-6-isopropyl-4H-pyrrolo[3,2-d]thiazol-2-yl)piperazin-1-yl)-2-(dimethylamino)ethan-1-one] |
| 9.24 | 9.10 | 4.85 | Cc1c(-c2[nH]c3sc(C4CCC(NCC(N)=O)CC4)nc3c2C(C)C)cn2ncnc2c1C (stereo not drawn) [Example 211, 2-((4-(5-(7,8-dimethyl-[1,2,4]triazolo[1,5-a]pyridin-6-yl)-6-isopropyl-4H-pyrrolo[3,2-d]thiazol-2-yl)cyclohexyl)amino)acetamide] |
| 9.27 | 7.88 | 4.54 | Cc1c(-c2[nH]c3sc(N4CCN(C5CCOCC5)CC4)nc3c2C(C)C)cn2ncnc2c1C [Example 287, 5-(7,8-dimethyl-[1,2,4]triazolo[1,5-a]pyridin-6-yl)-6-isopropyl-2-(4-(tetrahydro-2H-pyran-4-yl)piperazin-1-yl)-4H-pyrrolo[3,2-d]thiazole] |
| 9.28 | 7.82 | 4.85 | Cc1c(-c2[nH]c3sc(N4CCN(C(C)C)CC4)nc3c2C(C)C)cn2ncnc2c1C [Example 288, 5-(7,8-dimethyl-[1,2,4]triazolo[1,5-a]pyridin-6-yl)-6-isopropyl-2-(4-isopropylpiperazin-1-yl)-4H-pyrrolo[3,2-d]thiazole] |
| 9.35 | 8.02 | 4.37 | Cc1c(-c2[nH]c3sc(N4CCN(CC(C)(C)O)CC4)nc3c2C(C)C)cn2ncnc2c1C [Example 281, 1-(4-(5-(7,8-dimethyl-[1,2,4]triazolo[1,5-a]pyridin-6-yl)-6-isopropyl-4H-pyrrolo[3,2-d]thiazol-2-yl)piperazin-1-yl)-2-methylpropan-2-ol] |
| 9.48 | 8.84 | 4.97 | Cc1c(-c2[nH]c3sc(N4CCNCC4)nc3c2C(C)C)cn2ncnc2c1C [Example 278, 5-(7,8-dimethyl-[1,2,4]triazolo[1,5-a]pyridin-6-yl)-6-isopropyl-2-(piperazin-1-yl)-4H-pyrrolo[3,2-d]thiazole] |
